# Experiments:
# Assay type in all cases: in vivo, male Fischer (F344) rats
# [1] = system: liver injury induced by D-galactosamine; experiment: Experimental Example 1d: effect on liver injury induced by D-galactosamine in rats (group I-d); conditions: Rattus norvegicus, Table 1d, D-galactosamine 300 mg/kg s.c., compound 50 mg/kg oral in distilled water or 0.5% methylcellulose, 48 h
# Description: (§1) 300 mg/kg of D-galactosamine was administered to male Fischer (F344) rats weighing around 180 g by subcutaneous injection to induce liver injury. Each compound was dissolved in distilled water was given by oral administration in a dose of 50 mg/kg one hour after the injection of D-galactosamine.
# (§2) The D-galactosamine was used in the form of a solution having a concentration of 200 mg/ml, obtained by dissolving D-galactosamine in a physiological saline solution to obtain a dilute D-galactosamine solution and adjusting the pH of the dilute solution to 7.0 with 10N aqueous potassium hydroxide.
# (§3) Blood was collected from the rat's tail vein 48 h after the injection of D-galactosamine. The blood coagulation time was determined by the hepaplastin test (HPT) and GPT activity in the blood plasma was determined by an enzymatic method.
# [2] = system: liver injury induced by D-galactosamine; experiment: Experimental Example 1f: effect on liver injury induced by D-galactosamine in rats (group I-f); conditions: Rattus norvegicus, po, 48 h, Table 1f, D-galactosamine 400 mg/kg, compound 100 mg/kg in 0.5% methylcellulose
# Description: as §1, §2, §3
# The test was conducted in the same way as shown in Experimental Example 1a except that 400 mg/kg of D-galactosamine was administered in its physiological saline solution and each test compound was used in an amount of 100 mg/kg in 0.5% methylcellulose liquid.
# [3] = system: liver injury induced by D-galactosamine; experiment: Experimental Example 1b: effect on liver injury induced by D-galactosamine in rats (group I-b); conditions: Rattus norvegicus, po, 48 h, Table 1b, D-galactosamine 400 mg/kg; for inhibition in vivo at 100 mg/kg: compound 100 mg/kg in 0.5% methylcellulose; for inhibition in vivo at 50 mg/kg: values marked *: administration of 50 mg/kg
# [4] = system: liver injury induced by D-galactosamine; experiment: Experimental Example 1e: effect on liver injury induced by D-galactosamine in rats (group I-e); conditions: Rattus norvegicus, po, 48 h, Table 1e, D-galactosamine 400 mg/kg, compound 100 mg/kg in 0.5% aqueous methylcellulose
# Description: The D-galactosamine was used in the form of a solution having a concentration of 200 mg/ml, obtained by dissolving D-galactosamine in a physiological saline solution to obtain a dilute D-galactosamine solution and adjusting the pH of the dilute solution to 7.0 with 10N aqueous potassium hydroxide. Blood was collected from the rat's tail vein 48 h after the injection of D-galactosamine. The blood coagulation time was determined by the […]) and GPT activity in the blood plasma was determined by an enzymatic method.
# [5] = system: liver injury induced by D-galactosamine; experiment: Experimental Example 2b: inhibition of liver injury in rats (group I-b), method given as that of Experimental Example 1b; conditions: Rattus norvegicus, 48 h; Table 2b; compound 100 mg/kg oral in 0.5% methylcellulose; read-out: Inhibition ratio (%) GPT
# Description: The test was conducted in the same manner as shown in Experimental Example 1b except that the test compound was orally administered to the rats in a dose of 100 mg/kg in 0.5% methylcellulose solution.
# [6] = read-out: Inhibition ratio (%) GPT
# [7] = read-out: Inhibition ratio (%) HPT
smiles,measurement,setting,value
N#CCS(=O)(=O)CCc1ccc2c(c1)OCO2 [Compound 37],inhibition in vivo at 50 mg/kg,[1]; [6],52%
same,inhibition in vivo at 50 mg/kg,[1]; [7],44%
N#CC[S+]([O-])CCc1ccc2c(c1)OCO2 (centres unmarked) [Compound 33],inhibition in vivo at 50 mg/kg,[1]; [6],82%
same,inhibition in vivo at 50 mg/kg,[1]; [7],78%
Cc1cc2c(cc1C(C)SCC(=O)O)OCO2 (centres unmarked) [Compound 3],inhibition in vivo at 100 mg/kg,[2]; [6],100%
same,inhibition in vivo at 100 mg/kg,[2]; [7],100%
COCCSCCc1ccc2c(c1)OCO2 [Compound 6],inhibition in vivo at 100 mg/kg,[3]; [6],79%
same,inhibition in vivo at 100 mg/kg,[3]; [7],93%
"O=C(OCCSSCc1ccc2c(c1)OCO2)c1cccnc1 [Compound 10, 2-[{(1,3-Benzodioxol-5-yl)methyl}dithio]ethyl nicotinate]",inhibition in vivo at 100 mg/kg,[4]; [6],72%
same,inhibition in vivo at 100 mg/kg,[4]; [7],43%
O=C(OCCSSCCCc1ccc2c(c1)OCO2)c1cccnc1 [compound 7],inhibition in vivo at 100 mg/kg,[4]; [6],72%
same,inhibition in vivo at 100 mg/kg,[4]; [7],43%
"c1cc2c(cc1CCSSCCc1ccc3c(c1)OCO3)OCO2 [Compound 2, Bis{2-(1,3-benzodioxol-5-yl)ethyl}disulfide]",inhibition in vivo at 100 mg/kg,[4]; [6],64%
same,inhibition in vivo at 100 mg/kg,[4]; [7],57%
CC(C)S(=O)(=O)CCc1ccc2c(c1)OCO2 [Compound 36],inhibition in vivo at 50 mg/kg,[1]; [6],59%
same,inhibition in vivo at 50 mg/kg,[1]; [7],68%
CC(CC(=O)O)SCCc1ccc2c(c1)OCO2 (centres unmarked) [Compound 13],inhibition in vivo at 100 mg/kg,[3]; [6],99%
same,inhibition in vivo at 100 mg/kg,[3]; [7],99%
same,inhibition in vivo at 100 mg/kg,[5],86%
"CC1Oc2ccc(CCSCC(=O)O)cc2O1 (centres unmarked) [Example 12, Sodium [{2-(2-methyl-1,3-benzodioxol-5-yl)ethyl}-thio]acetate]",inhibition in vivo at 50 mg/kg,[1]; [6],85%
same,inhibition in vivo at 50 mg/kg,[1]; [7],85%
CC(Cc1ccc2c(c1)OCO2)SSC(C)Cc1ccc2c(c1)OCO2 (centres unmarked) [compound 11],inhibition in vivo at 100 mg/kg,[4]; [6],76%
same,inhibition in vivo at 100 mg/kg,[4]; [7],68%
Cc1cc2c(cc1C(C)SCC(N)=O)OCO2 (centres unmarked) [Compound 13],inhibition in vivo at 100 mg/kg,[2]; [6],50%
same,inhibition in vivo at 100 mg/kg,[2]; [7],17%
"c1ccc(CCSSCCCc2ccc3c(c2)OCO3)cc1 [Compound 6, 3-(1,3-Benzodioxol-5-yl)propyl phenethyl disulfide]",inhibition in vivo at 100 mg/kg,[4]; [6],55%
same,inhibition in vivo at 100 mg/kg,[4]; [7],53%
O=C(O)CSCCc1ccc2c(c1)OCO2 [Compound 8],inhibition in vivo at 100 mg/kg,[5],53%
O=C(O)CCCCSCCc1ccc2c(c1)OCO2 [Compound 11],inhibition in vivo at 100 mg/kg,[3]; [6],96%
same,inhibition in vivo at 100 mg/kg,[3]; [7],98%
same,inhibition in vivo at 100 mg/kg,[5],90%
NC(=O)CCSCCc1ccc2c(c1)OCO2 [Compound 17],inhibition in vivo at 100 mg/kg,[3]; [6],97%
same,inhibition in vivo at 100 mg/kg,[3]; [7],99%
same,inhibition in vivo at 100 mg/kg,[5],98%
"OCCSSCCc1ccc2c(c1)OCO2 [Compound 1, 2-[{2-(1,3-Benzodioxol-5-yl)ethyl}dithio]ethanol]",inhibition in vivo at 100 mg/kg,[4]; [6],92%
same,inhibition in vivo at 100 mg/kg,[4]; [7],62%
O=C(O)CNC(=O)CSCCc1ccc2c(c1)OCO2 [Compound 23],inhibition in vivo at 100 mg/kg,[3]; [6],77%
same,inhibition in vivo at 100 mg/kg,[3]; [7],92%
"CCCCCCCCCSSCCCc1ccc2c(c1)OCO2 [Compound 9, 3-(1,3-Benzodioxol-5-yl)propyl nonyl disulfide]",inhibition in vivo at 100 mg/kg,[4]; [6],53%
same,inhibition in vivo at 100 mg/kg,[4]; [7],49%
"c1ccc(CSCCc2ccc3c(c2)OCO3)nc1 [Example 7, 2-(1,3-Benzodioxol-5-yl)ethyl (pyridin-2-yl)methyl sulfide]",inhibition in vivo at 50 mg/kg,[1]; [6],37%
same,inhibition in vivo at 50 mg/kg,[1]; [7],58%
Cc1cc2c(cc1CSCC(=O)O)OCO2 [Compound 6],inhibition in vivo at 100 mg/kg,[2]; [6],100%
same,inhibition in vivo at 100 mg/kg,[2]; [7],100%
"c1cc(CSCCc2ccc3c(c2)OCO3)ccn1 [Example 6, 2-(1,3-Benzodioxol-5-yl)ethyl (pyridin-4-yl)methyl sulfide]",inhibition in vivo at 50 mg/kg,[1]; [6],64%
same,inhibition in vivo at 50 mg/kg,[1]; [7],76%
"O=C(OCCSSCCc1ccc2c(c1)OCO2)c1cccnc1 [Compound 3, 2-[{2-(1,3-Benzodioxol-5-yl)ethyl}dithio]ethyl nicotinate]",inhibition in vivo at 100 mg/kg,[4]; [6],92%
same,inhibition in vivo at 100 mg/kg,[4]; [7],62%
O=C(O)CCCCCSCCc1ccc2c(c1)OCO2 [Compound 12],inhibition in vivo at 50 mg/kg,[3]; [6],69%
same,inhibition in vivo at 50 mg/kg,[3]; [7],75%
"SCCc1ccc2c(c1)OCO2 [Compound 1, 2-(1,3-Benzodioxol-5-yl)ethanethiol]",inhibition in vivo at 100 mg/kg,[3]; [6],91%
same,inhibition in vivo at 100 mg/kg,[3]; [7],96%
"O=C(O)CSCCc1ccc2c(c1)OCO2 [Compound 8, Sodium [{2-(1,3-benzodioxol-5-yl)ethyl}thio]acetate]",inhibition in vivo at 100 mg/kg,[3]; [6],97%
same,inhibition in vivo at 100 mg/kg,[3]; [7],97%
CCCC(SCC(=O)O)c1ccc2c(c1)OCO2 (centres unmarked) [Compound 1],inhibition in vivo at 100 mg/kg,[2]; [6],84%
same,inhibition in vivo at 100 mg/kg,[2]; [7],100%
OCCSCCc1ccc2c(c1)OCO2 [Compound 3],inhibition in vivo at 100 mg/kg,[3]; [6],97%
same,inhibition in vivo at 100 mg/kg,[3]; [7],94%
Cc1cc2c(cc1CCSCC(=O)O)OCO2 [Compound 16],inhibition in vivo at 50 mg/kg,[1]; [6],25%
same,inhibition in vivo at 50 mg/kg,[1]; [7],41%
[O-][S+](CCO)CCc1ccc2c(c1)OCO2 (centres unmarked) [Compound 27],inhibition in vivo at 100 mg/kg,[3]; [6],54%
same,inhibition in vivo at 100 mg/kg,[3]; [7],65%
N#CC(SCCc1ccc2c(c1)OCO2)C(=O)O (centres unmarked) [Compound 28],inhibition in vivo at 50 mg/kg,[1]; [6],44%
same,inhibition in vivo at 50 mg/kg,[1]; [7],45%
CCC(SCC(=O)O)c1cc2c(cc1C)OCO2 (centres unmarked) [Compound 4],inhibition in vivo at 100 mg/kg,[2]; [6],89%
same,inhibition in vivo at 100 mg/kg,[2]; [7],100%
CC(C)c1cc2c(cc1CCSCC(=O)O)OCO2 [Compound 9],inhibition in vivo at 100 mg/kg,[2]; [6],88%
same,inhibition in vivo at 100 mg/kg,[2]; [7],67%
CCCC(SCC(=O)NCC(=O)O)c1ccc2c(c1)OCO2 (centres unmarked) [Compound 17],inhibition in vivo at 100 mg/kg,[2]; [6],91%
same,inhibition in vivo at 100 mg/kg,[2]; [7],70%
"N#CCSCCc1ccc2c(c1)OCO2 [Example 2, [{2-(1,3-Benzodioxol-5-yl)ethyl}thio]acetonitrile]",inhibition in vivo at 50 mg/kg,[1]; [6],88%
same,inhibition in vivo at 50 mg/kg,[1]; [7],100%
c1ncc(CSCCc2ccc3c(c2)OCO3)[nH]1 [Compound 8],inhibition in vivo at 50 mg/kg,[1]; [6],28%
same,inhibition in vivo at 50 mg/kg,[1]; [7],61%
CC(C)(SCC(=O)O)c1ccc2c(c1)OCO2 [Compound 2],inhibition in vivo at 100 mg/kg,[2]; [6],76%
same,inhibition in vivo at 100 mg/kg,[2]; [7],83%
"CC(Cc1ccc2c(c1)OCO2)SSCCO (centres unmarked) [Compound 12, 2-[{2-(1,3-Benzodioxol-5-yl)-1-methylethyl}dithio]ethanol]",inhibition in vivo at 100 mg/kg,[4]; [6],63%
same,inhibition in vivo at 100 mg/kg,[4]; [7],45%
"CC(C)(SCCc1ccc2c(c1)OCO2)C(=O)O [Example 4, Sodium 2-methyl-2-[{2-(1,3-benzodioxol-5-yl)ethyl}thio]propionate]",inhibition in vivo at 50 mg/kg,[1]; [6],84%
same,inhibition in vivo at 50 mg/kg,[1]; [7],91%
"CCC(Cc1ccc2c(c1)OCO2)SCC(=O)O (centres unmarked) [Example 26, Sodium [[1-{(1,3-benzodioxol-5-yl)methyl}propyl]thio]acetate]",inhibition in vivo at 50 mg/kg,[1]; [6],53%
same,inhibition in vivo at 50 mg/kg,[1]; [7],48%
"CC(=O)CSCCc1ccc2c(c1)OCO2 [Example 1, [{2-(1,3-Benzodioxol-5-yl)ethyl}thio]propan-2-one]",inhibition in vivo at 50 mg/kg,[1]; [6],89%
same,inhibition in vivo at 50 mg/kg,[1]; [7],100%
CC(=O)CS(=O)(=O)CCc1ccc2c(c1)OCO2 [Compound 34],inhibition in vivo at 50 mg/kg,[1]; [6],37%
same,inhibition in vivo at 50 mg/kg,[1]; [7],17%
CC(C)(SCC(N)=O)c1ccc2c(c1)OCO2 [Compound 11],inhibition in vivo at 100 mg/kg,[2]; [6],97%
same,inhibition in vivo at 100 mg/kg,[2]; [7],68%
CCS(=O)(=O)CCc1ccc2c(c1)OCO2 [Compound 35],inhibition in vivo at 50 mg/kg,[1]; [6],76%
same,inhibition in vivo at 50 mg/kg,[1]; [7],60%
CN(C)C(=O)CCSCCc1ccc2c(c1)OCO2 [Compound 19],inhibition in vivo at 100 mg/kg,[3]; [6],69%
same,inhibition in vivo at 100 mg/kg,[3]; [7],90%

# From US5292901A, “Benzodioxole derivatives” (Eisai Co., Ltd., priority 1987, dated 1994)
